Results on seven molecules are retold here after patent publication US4665083A, “Iminothiazolidine derivatives” (priority 1984, dated 1987).

One series can be described thus: in vivo. The conditions noted are these: mouse, mice, 7 days observation, Litchfield-Wilcoxon. The procedure: (1) Acute toxicity on mice
The acute toxicity is determined on mice of both sex (CFLP breed, body weight 18 to 22 g). For each dosis 6 animals are employed. The compounds tested are administered orally in a volume of 20 ml/kg body weight. After the administration the animals are observed for 7 days. During this period the animals are fed with standard mouse feed and water ad libitum. The toxicity values are determined according to Litchfield-Wilcoxon's method.

The subject of another series is Reserpine ptosis. Briefly: animal or person. The class given is in vivo. The conditions noted are these: for Therapeutical index (reserpine ptosis antagonism): LD50 and ED50 reserpine ptosis, mice; for ED50: Mus musculus, sc, 1 h, read-out: Reserpine ptosis antagonism ED50. The procedure:
(3) Reserpine ptosis antagonism on mice
Each group consisting of 10 mice are treated with 6 mg/kg of reserpine, subcutaneously. […] The animals with ptosis are counted 60 and 120 minutes after the administration of the compounds to be tested. Evaluation is carried out as given under point (2) above.

The next series relates to yohimbine toxicity. Briefly: animal or person. The format is in vivo. The conditions noted are these: for Therapeutical index (potentiation of yohimbine toxicity): LD50 and ED50 yohimbine toxicity, mice; for ED50: Mus musculus, ip, read-out: Potentiation of yohimbine toxicity ED50. Here is the method: (4) Yohimbine toxicity test on mice.
The examination is performed according to Quinton's method. Each group of animals consisting of 10 mice are treated with the compounds to be tested and the vehicle without active agent, respectively. After one hour a sublethal dosage of yohimbine in a volume of 20 ml/kg body weight is administered to the test groups, intraperitoneally. The number of the dead animals is recorded 1 and 24 hours after the administration of yohimbine.

The test system of a further series is nicotine lethality. Nature of the series: Inhibition of nicotine spasm / nicotine lethality. The class given is in vivo, mice. As to conditions: mice; for Therapeutical index (inhibition of nicotine lethality): LD50 and ED50 nicotine lethality; for ED50: Mus musculus, oral, 1 hour before 1.4 mg/kg i.v. nicotine, read-out: Inhibition of nicotine lethality ED50. The procedure:
(5) Inhibition of nicotine spasm
The test is carried out on mice according to Stone.

For a further series, the system named is acetic acid writhing. Briefly: animal or person. The format is in vivo. As to conditions: for Therapeutical index (analgesic effect, writhing test): LD50 and ED50 writhing test, mice; for ED50: Mus musculus, ip, read-out: Analgesic effect (writhing test) ED50. Here is the method:
(9) Analgesic effect on mice (writhing test)
The test is carried out on mice according to the modified method of Newbould. 0.75 percent acetic acid is administered to the animals in a volume of 20 ml/kg, intraperitoneally, and the characteristic "writhing reactions" are counted for a period of 5 minutes, starting from the fifth minute after challenge. […] The inhibition relative to the control group is evaluated in percentage.
A general note: Writhing tests count abdominal constrictions after an irritant is injected.

A further series concerns intestinal peristalsis. Nature of the series: animal or person. The format is in vivo. As to conditions: for Therapeutical index (inhibition of intestinal peristalsis): LD50 and ED50 intestinal peristalsis, mice; for ED50: Mus musculus, po, read-out: Inhibition of intestinal peristalsis ED50. The procedure:
(8) Antiperistaltic effect on mice
The antiperistaltic effect of the compounds is examined on mice weighing 20 to 25 g according to the method of Stickney and co-workers. Each dosis of the compound to be tested is administered, orally, 60 minutes prior to the administration of a 10 percent carbon suspension. […] 20 minutes after the administration of the carbon suspension, the animals are sacrificed, and the length of the entire small intestine as well as that of the small intestine filled with carbon are determined. The inhibition in relation to the control is calculated in percentage. […] From the values thus-transformed ED50 values are calculated.

A further series deals with Tetrabenazine ptosis. Briefly: animal or person. The format is in vivo. As to conditions: for Therapeutical index (tetrabenazine ptosis antagonism): LD50 and ED50 tetrabenazine ptosis, mice; for ED50: Mus musculus, po, read-out: Tetrabenazine ptosis antagonism ED50. Here is the method: (2) Tetrabenazine ptosis antagonism on mice
The tetrabenazine ptosis antagonism of the compounds are tested on groups consisting of 10 mice each. […] 30 minutes after the introduction of the active agent or the vehicle, 50 mg/kg of tetrabenazine (3-isobutyl-9,10-[…]-1,2,3,4,6,7-hexahydrobenzo[a]quinolizine-2-one) are administered, intraperitoneally, and the animals with ptosis are counted 30, 60, 90 and 120 minutes after the administration of the tetrabenazine.
Evaluation: the average ptosis value is calculated in each group, and the deviation from the average obtained for the control group (inhibition) is given in percentage. From the data obtained ED50 values are calculated.

Another series deals with pentatetrazole spasm. Briefly: animal or person. The format is in vivo. The conditions noted are these: for Therapeutical index (inhibition of pentatetrazole spasm): LD50 and ED50 pentatetrazole spasm, mice; for ED50: Mus musculus, po, read-out: Inhibition of pentatetrazole spasm ED50. Here is the method:
(6) Inhibition of pentatetrazole spasm
The test is performed on mice according to a modified method of Banziger and Hane.

In a further series the test system is maximum electroshock. Nature of the series: animal or person. The class given is in vivo. As to conditions: Mus musculus, po, read-out: Inhibition of maximum electroshock ED50. Here is the method:
(7) Maximum inhibition of electroshock
The examination is carried out on mice weighing 20 to 25 g according to Swinyard. Electroshocks having the parameters of 50 Hz, 45 mA and 0.4 sec are employed by means of corneal electrodes. The complete inhibition of the tonic spasm of the lower limb extensor is taken as the criterium of the anticonvulsive action.

One may read the LD50 as the dose at which mortality reaches 50%. Read a low LD50 as greater toxicity. The term ED50 denotes the midpoint of the dose-response relation.

`Cc1ccc(N2CCSC2=N)c(N)c1` [Compound 13, 3-(2-amino-4-methylphenyl)-2-iminothiazolidine] registered an LD50 at 168 h in “in vivo” (po) of 1300 mg/kg. Further, in the series with Reserpine ptosis, the “Therapeutical index (reserpine ptosis antagonism)” value came out at 18.5 and the ED50 is 70 mg/kg. For the same molecule, in the series on yohimbine toxicity, the “Therapeutical index (potentiation of yohimbine toxicity)” value is reported as 25 and the ED50 was 52 mg/kg. Besides, in the series on nicotine lethality, the “Therapeutical index (inhibition of nicotine lethality)” value amounted to 130 and the ED50 is 10 mg/kg. Besides, in the series with acetic acid writhing, the “Therapeutical index (analgesic effect, writhing test)” value is on record as 8.1 and the ED50 was 160 mg/kg.
On to `N=C1SCCN1c1ccc(N)cc1` [Compound 14, 3-(4-aminophenyl)-2-imino-1,3-thiazolidine], for which the LD50 at 168 h in “in vivo” (po) stood at 400 mg/kg. In the series on yohimbine toxicity, the “Therapeutical index (potentiation of yohimbine toxicity)” value turned out to be 20.0 and the ED50 was determined as 20 mg/kg. In addition, in the series with intestinal peristalsis, the “Therapeutical index (inhibition of intestinal peristalsis)” value turned out to be 4.4 and the ED50 is 50 mg/kg.
The molecule `Cl.N=C1SCCN1c1ccc(C(F)(F)F)cc1N` [Compound 4, 3-(2-amino-4-trifluoromethylphenyl)-2-iminothiazolidine hydrochloride] came in with an LD50 at 168 h in the series “in vivo” (po) of 1300 mg/kg. Further, in the series on Tetrabenazine ptosis, the “Therapeutical index (tetrabenazine ptosis antagonism)” value worked out at 32.5 and the ED50 came out at 40 mg/kg. Further, in the series with Reserpine ptosis, the “Therapeutical index (reserpine ptosis antagonism)” value is on record as 38 and the ED50 came to 34 mg/kg. Also, in the series with pentatetrazole spasm, the “Therapeutical index (inhibition of pentatetrazole spasm)” value was 8.1 and the ED50 came out at 160 mg/kg. In the series on intestinal peristalsis, the “Therapeutical index (inhibition of intestinal peristalsis)” value was found to be 19.7 and the ED50 was determined as 66 mg/kg.
`CN1C(=O)OC(C)(C)C1=O` [Trimethadion, reference compound] came in with an LD50 at 168 h in “in vivo” (oral) of 2050 mg/kg. For the same molecule, the ED50 with pentatetrazole spasm amounted to 490 mg/kg; in the series on maximum electroshock it was 400 mg/kg.
On to `CN(C)CCC=C1c2ccccc2CCc2ccccc21` [Amitriptylin, reference compound], for which, in the series with Tetrabenazine ptosis, the “Therapeutical index (tetrabenazine ptosis antagonism)” value was found to be 18.7 and the ED50 was determined as 12 mg/kg. In the series with Reserpine ptosis, the “Therapeutical index (reserpine ptosis antagonism)” value worked out at 3.5 and the median effective dose (ED50) was determined as 65 mg/kg. For the same molecule, in the series on yohimbine toxicity, the “Therapeutical index (potentiation of yohimbine toxicity)” value is on record as 18 and the ED50 is 12.5 mg/kg.
For `Br.COc1ccc(N2CCSC2=N)c([N+](=O)[O-])c1` [Compound 11, 3-(4-methoxy-2-nitrophenyl)-2-iminothiazolidine hydrobromide], the LD50 at 168 h in “in vivo” (po) came out at 650 mg/kg. In the series with Tetrabenazine ptosis, the “Therapeutical index (tetrabenazine ptosis antagonism)” value was 16.3 and the ED50 amounted to 40 mg/kg. For the same molecule, in the series with Reserpine ptosis, the “Therapeutical index (reserpine ptosis antagonism)” value is 16.3 and the ED50 was found to be 40 mg/kg. Also, in the series on nicotine lethality, the “Therapeutical index (inhibition of nicotine lethality)” value is reported as 14.4 and the ED50 was determined as 45 mg/kg. For the same molecule, in the series with pentatetrazole spasm, the “Therapeutical index (inhibition of pentatetrazole spasm)” value was determined as 19.11 and the ED50 stood at 34 mg/kg. Further, in the series with intestinal peristalsis, the “Therapeutical index (inhibition of intestinal peristalsis)” value is given as 6.2 and the ED50 was determined as 105 mg/kg.
`Cl.Cl.N=C1SCCN1c1cc(Cl)ccc1N` [Compound 2, 3-(2-amino-5-chlorophenyl)-2-iminothiazolidine dihydrochloride] came in with an LD50 at 168 h in the series “in vivo” (po) of 800 mg/kg. Besides, in the series on Tetrabenazine ptosis, the “Therapeutical index (tetrabenazine ptosis antagonism)” value is listed as 32 and the ED50 came out at 25 mg/kg. Also, in the series on yohimbine toxicity, the “Therapeutical index (potentiation of yohimbine toxicity)” value is recorded as 16 and the ED50 is 50 mg/kg. Moreover, in the series on pentatetrazole spasm, the “Therapeutical index (inhibition of pentatetrazole spasm)” value came to 10.2 and the ED50 came out at 78 mg/kg. Moreover, in the series with acetic acid writhing, the “Therapeutical index (analgesic effect, writhing test)” value was 18.6 and the ED50 worked out at 43 mg/kg.
